“Also recorded” adds a separate entry of the source. No end group written: not given here.

As usually defined, the IC50 is the concentration needed to halve the response being measured. As usually defined, the Ki is a measure of affinity in units of concentration, obtained from inhibition or displacement.

Test [1] concerns the target T1, Dvl2PDZ (Homo sapiens, UniProt O14641).
T1 construct: protein fragments spanning amino acids 248-364 of the full-length Dvl2 were produced; made in house; host or cells: E. coli (pGEX system)
T1 sequence (O14641 248-364): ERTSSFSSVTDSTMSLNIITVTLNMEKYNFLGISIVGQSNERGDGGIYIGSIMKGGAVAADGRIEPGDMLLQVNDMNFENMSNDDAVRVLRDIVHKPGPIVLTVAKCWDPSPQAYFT
In words: Fluorescence polarization assay, peptides binding to Dvl2PDZ. On the procedure: The binding affinities of synthetic peptides were also measured by Flourescence polarization assay. Serial dilution of purified Dvl2PDZ domain polypeptide (1-10 μM) was incubated with 10 nM probe peptide (FAM-KWYGWL-COOH) (SEQ ID NO: 169) in PBS, 0.1% Triton X100 as 30 μl volume in 96-well black HE96 plates (LJL Biosystem, Inc, Calif.), and incubated for 15 minutes at room temperature. Polarization measurements were performed in Analyst platereader (LJL Biosystems, Inc., Sunnyvale, Calif.). Ks=536 nM was derived from this assay by non-linear regression fitting with KaleidaGraph™. Competition experiments were performed by addition of serial dilution of the free peptides (0-500 μM) to solution with 10 nM probe and 1 μM Dvl2PDZ. The polarization was measured and IC50 values were derived as described above. Ki values were calculated as described previously.

Test [2] concerns the target T1, Dvl2PDZ. In words: Competition ELISA, peptides binding to Dvl2PDZ. From the text: Many methods are known and can be used to identify the binding affinities of binding molecules (e.g. peptides, proteins, small molecules, etc.); for example, binding affinities can be determined as IC50 values using competition ELISAs. The IC50 value is defined as the concentration of binder which blocks 50% of Dvl PDZ domain binding to a ligand. For example, in solid phase assays, assay plates may be prepared by coating microwell plates (preferably treated to efficiently adsorb protein) with neutravidin, avidin or streptavidin. […] After further washing, the binding reactions are detected, often with an antibody recognizing the non-PDZ fusion partner and a labeled (such as horseradish peroxidase (HRP), alkaline phosphatase (AP), or a fluorescent tag such as fluorescein) secondary antibody recognizing the primary antibody. The plates are then developed with the appropriate substrate (depending on the label) and the signal quantified, such as using a spectrophotometric plate reader. […] Thus the ability of the various molecules to inhibit PDZ domain from binding a known PDZ domain binder can be measured.
Affinity assays—The binding affinities of peptides for Dvl2PDZ were determined as IC50 values using a competition ELISA, as previously described. […]
In general terms: An ELISA detects its analyte on a solid surface through an enzyme-linked reagent.

In test [3] the test system is Wnt3a-stimulated β-catenin signaling in HEK293S cells. In words: TOPGLOW luciferase reporter assay in HEK293S cells. The test is classed as cell-based. The settings on record: for Effect on Wnt3a-stimulated transcriptional activity (TopGlow): peptide up to 20 μM in medium. On the procedure:
HEK293S cells were transfected with the reporter plasmid pTOPGLOW combined with pRL reporter. Cell extract was prepared and the luciferase activity was measured. The relative luciferase unit (RLU) is TopGlow luciferase activity divided by Renila luciferase activity. The fold of activation is the RLU ratio between the Wnt3a-stimulated and non-stimulated cells. Cells were treated with either 10 μM (light bar) or 20 μM (dark bar) peptide ligands.
(§1) Cell culture, transfection and peptide treatment: HEK293 and H1703 were propagated according to the instructions from American Type Culture Collection. HEK293 cells were transfected with FuGene6 according to the manufacturer's instructions (Roche Molecular Biochemicals) at cell confluence of 50%. H1703 cells were transfected with Lipofectamine according to manufacturer's instruction at cell confluence of 80%. Cells were treated with medium containing peptide (5 μM-40 μM) 24 hours after transfection, and were routinely harvested 24 hours after the peptide treatment for additional assays.
TOPGLOW assay: Cells were plated in 12-well plates. The TOPGLOW reporter plasmid was transfected transiently into cells as described above. TCF-mediated gene transcription was determined by pTOPGLOW luciferase activity, which was normalized to relative luciferase activities of pRL reporter (cotransfected internal control). All experiments were performed duplicated.
(In general: In a reporter assay the amount or activity of a reporter protein is the signal.)

Test [4] has as its system β-catenin protein level in HEK293S cells. Briefly: Western blot of β-catenin protein level in HEK293S cells. The format is cell-based. The settings on record: 20 μM peptide, 24 hours, compared to DMSO and PEN. On the procedure: HEK293S cells were treated with 20 μM DVLp and PEN for 24 hours. Cell lysate was prepared and subjected to SDS-PAGE. β-catenin was blotted by poly-clonal anti-β-catenin (Genentech, Inc., South San Francisco).
as §1
Western Blot: Harvested cells were lysed with SIC lysis buffer, the supernatant was subjected to SDS-PAGE, which was transferred, blocked and blotted with proper primary antibody by a standard western blot protocol. Fluorescence labeled secondary antibodies (Alexa goat anti-mouse or anti-rabbit) were added and the results were analyzed by Li-core™.

Take “Ac-GEIVLWSDIPG-NH2 [Peptide N3, G E I V L W S D I P G]”: the “Affinity lower than that of D1” value in test [1] (ratio of Ki values) is given as 6 fold.

For the substance Ac-KGFGML-OH [Peptide D5, K G F G M L], in test [2], the IC50 was 242000 nM.

As to Ac-KWYGWF [Peptide D2, K W Y G W F], the IC50 in test [2] worked out at 930 nM.

In the case of Ac-KWYGWL-OH [Peptide D1, K W Y G W L], the Ki in test [1] (competition with 10 nM FAM-KWYGWL-COOH probe, 1 μM Dvl2PDZ, read-out: Ki measured by Flourescence polarization assay) came out at 725 nM.

As for Ac-RQTKIVWFQNRRMKKGEIVLWSDIPG [DVLp_N3], the “Effect on Wnt3a-stimulated transcriptional activity (TopGlow)” value was “inhibited Wnt3a-stimulated transcriptional activity significantly; also recorded: blocked the Wnt-stimulated β-catenin signaling” in test [3] (HEK293S cells) and “significantly blocked the Wnt-stimulated increase in β-catenin signaling” in test [3] (HEK293S cells, listed as Dvlp_N3). In addition, in test [3] (HEK293S cells, two independent experiments), the “Dose dependence of inhibition of Wnt-stimulated β-catenin signaling” value is “dose-dependent”. In addition, the “Inhibition of Wnt3a-stimulated transcriptional activity” value in test [3] (HEK293 cells, peptide 5-20 μM) is on record as “up to 80%”. The “β-catenin level in whole cell lysate upon Wnt3a stimulation” value was “significantly lower β-catenin levels” in test [4] and “reduced the Wnt-stimulated increase in β-catenin protein level” in test [4] (listed as Dvlp_N3).

As to “Ac-RQTKIWFQNRRMKWKK [PEN, reference compound]”, in test [3] (HEK293S cells), the “Effect on Wnt3a-stimulated transcriptional activity (TopGlow)” value is “did not show an inhibition effect”.

The values above are taken from patent publication US7977064B2, “Disheveled PDZ modulators” (Genentech, Inc., priority 2006, dated 2011).
